Consider three compounds from PMC4391372 (Journal of agricultural and food chemistry, 2011).

SMILES strings stand for the structures.

The assay has as its target T1, hTAS2R31 (Homo sapiens, UniProt P59538).
T1 sequence (P59538 1-309): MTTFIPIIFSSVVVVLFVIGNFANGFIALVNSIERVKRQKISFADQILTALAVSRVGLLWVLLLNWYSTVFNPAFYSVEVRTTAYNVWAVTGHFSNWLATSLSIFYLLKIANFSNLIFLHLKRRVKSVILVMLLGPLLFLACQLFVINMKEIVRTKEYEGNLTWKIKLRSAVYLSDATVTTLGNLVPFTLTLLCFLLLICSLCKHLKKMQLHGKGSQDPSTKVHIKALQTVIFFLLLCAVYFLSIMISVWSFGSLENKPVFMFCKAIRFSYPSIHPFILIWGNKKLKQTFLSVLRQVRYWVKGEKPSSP
Kind of assay: HEK-293T cell-based receptor assay.
As for `COc1cc(O)c2c(c1)O[C@H](c1ccc(O)cc1)CC2=O` [compound 2, sakuranetin], half-maximal inhibition (IC50) was put at 5.5 ± 2.5 µM. In the case of `COc1cc2c(c(O)c1OC)C(=O)C[C@@H](c1ccc(O)cc1)O2` [compound 9, 6-methoxysakuranetin], the IC50 was found to be 10.2 ± 5.4 µM.

On to `COc1cc(-c2cc(=O)c3c(O)c(OC)c(O)cc3o2)ccc1O` [compound 10, jaceosidin], for which it took 11.7 ± 6 µM to reach half-maximal inhibition (IC50).

Usually IC50 stands for the point on the concentration scale where inhibition reaches its midpoint.
